Measurements as given in PubChem BioAssay AID328 (DTP/NCI, 2004).
Several values for one entry are separate records, joined by “and”; a condition that tells them apart may be missing. Equal entries are not always repeated. Toxic doses and inconclusive results are not listed. The calls were made as follows: active = survival T/C of 150% or more; inactive = T/C below 125% in these data.

Test system: BDF1 mice, P388 leukemia ip, median survival T/C
Experiment: NCI In Vivo Anticancer Drug Screen. Data for tumor model P388 Leukemia (intraperitoneal) in B6D2F1 (BDF1) mice
Conditions: endpoint: median survival time, higher = longer survival
In short: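 Antitumour effect was judged in vivo: survival in drug-treated mice, normalised to that of vehicle-dosed controls, gives the reported T/C.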

[1] = dose: 50.0 mg/kg/injection, schedule: Q01DX009 (ip), vehicle: saline with Tween-80
[2] = dose: 100.0 mg/kg/injection, schedule: Q01DX009 (ip), vehicle: saline with Tween-80
[3] = dose: 200.0 mg/kg/injection, schedule: Q01DX009 (ip), vehicle: saline with Tween-80
[4] = dose: 12.5 mg/kg/injection, schedule: Q04DX003 (ip), vehicle: saline
[5] = dose: 25.0 mg/kg/injection, schedule: Q04DX003 (ip), vehicle: saline
[6] = dose: 50.0 mg/kg/injection, schedule: Q04DX003 (ip), vehicle: saline
[7] = dose: 6.25 mg/kg/injection, schedule: Q01DX009 (ip), vehicle: Klucel (hydroxypropylcellulose) (HPC)
[8] = dose: 12.5 mg/kg/injection, schedule: Q01DX009 (ip), vehicle: Klucel (hydroxypropylcellulose) (HPC)
[9] = dose: 25.0 mg/kg/injection, schedule: Q01DX009 (ip), vehicle: Klucel (hydroxypropylcellulose) (HPC)
[10] = dose: 100.0 mg/kg/injection, schedule: Q01DX001 (ip), vehicle: Klucel (hydroxypropylcellulose) (HPC)
[11] = dose: 100.0 mg/kg/injection, schedule: Q04DX003 (ip), vehicle: Klucel (hydroxypropylcellulose) (HPC)
[12] = dose: 200.0 mg/kg/injection, schedule: Q01DX001 (ip), vehicle: Klucel (hydroxypropylcellulose) (HPC)
[13] = dose: 200.0 mg/kg/injection, schedule: Q04DX003 (ip), vehicle: Klucel (hydroxypropylcellulose) (HPC)
[14] = dose: 400.0 mg/kg/injection, schedule: Q04DX003 (ip), vehicle: Klucel (hydroxypropylcellulose) (HPC)
[15] = dose: 100.0 mg/kg/injection, schedule: Q04DX003 (ip), vehicle: saline
[16] = dose: 200.0 mg/kg/injection, schedule: Q04DX003 (ip), vehicle: saline
[17] = dose: 25.0 mg/kg/injection, schedule: Q01DX009 (ip), vehicle: saline
[18] = dose: 50.0 mg/kg/injection, schedule: Q01DX009 (ip), vehicle: saline
[19] = dose: 200.0 mg/kg/injection, schedule: Q01DX009 (ip), vehicle: saline
[20] = dose: 400.0 mg/kg/injection, schedule: Q04DX003 (ip), vehicle: saline

Measured: T/C

COc1ccc(SC2=C(N(C)C(C)=O)C(=O)c3ccccc3C2=O)cc1
inactive: dose: 0.93 mg/kg/injection, schedule: Q01DX009 (ip), vehicle: Klucel (hydroxypropylcellulose) (HPC) 109 % of control | dose: 1.87 mg/kg/injection, schedule: Q01DX009 (ip), vehicle: Klucel (hydroxypropylcellulose) (HPC) 113 % of control | dose: 3.75 mg/kg/injection, schedule: Q01DX009 (ip), vehicle: Klucel (hydroxypropylcellulose) (HPC) 113 % of control | dose: 7.5 mg/kg/injection, schedule: Q01DX009 (ip), vehicle: Klucel (hydroxypropylcellulose) (HPC) 108 % of control | dose: 11.0 mg/kg/injection, schedule: Q04DX003 (ip), vehicle: Klucel (hydroxypropylcellulose) (HPC) 100 % of control | dose: 17.0 mg/kg/injection, schedule: Q04DX003 (ip), vehicle: Klucel (hydroxypropylcellulose) (HPC) 100 % of control

CN(C)P(N)(=S)N(C)C
inactive: [1] 96 % of control | [2] 91 % of control | [3] 96 % of control

O=C1NCCN1c1ccccn1
inactive: [4] 100 % of control | [5] 90 % of control | [6] 95 % of control

CCc1ccc(OS(=O)(=O)c2ccc([N+](=O)[O-])cc2)cc1
inactive: dose: 75.0 mg/kg/injection, schedule: Q01DX001 (ip), vehicle: saline with Tween-80 104 % of control | dose: 150.0 mg/kg/injection, schedule: Q01DX001 (ip), vehicle: saline with Tween-80 100 % of control | dose: 300.0 mg/kg/injection, schedule: Q01DX001 (ip), vehicle: saline with Tween-80 100 % of control

N#C/C(=C\c1ccncc1)c1ccccc1
inactive: dose: 12.5 mg/kg/injection, schedule: Q01DX009 (ip), vehicle: saline with Tween-80 92 % of control | [1] 98 % of control | [2] 112 % of control | [3] 98 % of control

c1ccc(P(CCP(CCP(c2ccccc2)c2ccccc2)c2ccccc2)CCP(c2ccccc2)c2ccccc2)cc1 (stereo unspecified)
inactive: [2] 90 % of control and 100 % of control | [3] 110 % of control and 100 % of control | dose: 400.0 mg/kg/injection, schedule: Q01DX009 (ip), vehicle: saline with Tween-80 100 % of control and 120 % of control

O=C1C(Cl)=C(Nc2nccs2)C(=O)c2ccccc21
inactive: dose: 50.0 mg/kg/injection, schedule: Q01DX005 (ip), vehicle: saline with Tween-80 102 % of control | dose: 100.0 mg/kg/injection, schedule: Q01DX005 (ip), vehicle: saline with Tween-80 107 % of control | dose: 200.0 mg/kg/injection, schedule: Q01DX005 (ip), vehicle: saline with Tween-80 118 % of control

COC1=CC(=O)C=C(OC)C1=O
inactive: dose: 2.0 mg/kg/injection, schedule: Q01DX010 (ip), vehicle: saline 105 % of control | dose: 4.0 mg/kg/injection, schedule: Q01DX010 (ip), vehicle: saline 100 % of control | dose: 8.0 mg/kg/injection, schedule: Q01DX010 (ip), vehicle: saline 105 % of control

O=C1CCCCCCCCCCC1Cc1cc(O)c(CC2CCCCCCCCCCC2=O)cc1O (stereo unspecified)
inactive: [1] 96 % of control | [2] 94 % of control | [3] 100 % of control

N=P(N[P+](N)(c1ccccc1)c1ccccc1)(c1ccccc1)c1ccccc1
inactive: dose: 6.25 mg/kg/injection, schedule: Q01DX001 (ip), vehicle: saline 117 % of control | dose: 8.2 mg/kg/injection, schedule: Q01DX001 (ip), vehicle: saline 100 % of control | dose: 12.5 mg/kg/injection, schedule: Q01DX001 (ip), vehicle: saline 100 % of control | dose: 18.0 mg/kg/injection, schedule: Q01DX001 (ip), vehicle: saline 104 % of control | dose: 25.0 mg/kg/injection, schedule: Q01DX001 (ip), vehicle: saline 116 % of control

CC(C)OC(=O)c1ccc(C(C)C)cc1
inactive: [2] 110 % of control | [3] 117 % of control

CC12CCCCC1=Nc1ccc3ccccc3c12 (stereo unspecified)
inactive: dose: 100.0 mg/kg/injection, schedule: Q01DX009 (ip), vehicle: saline + alcohol 93 % of control

C=C1C(=O)OC2C3OC(C)(CCC(O)C3COC(C)=O)CC(OC(=O)/C(=C/C)COC(C)=O)C12 (stereo unspecified)
inactive: dose: 3.13 mg/kg/injection, schedule: Q01DX009 (ip), vehicle: Klucel (hydroxypropylcellulose) (HPC) 100 % of control | [7] 112 % of control | [8] 102 % of control | [9] 121 % of control

S=C1NC(c2ccccc2)NC(c2ccccc2)S1 (stereo unspecified)
inactive: [10] 95 % of control | dose: 100.0 mg/kg/injection, schedule: Q01DX009 (ip), vehicle: Klucel (hydroxypropylcellulose) (HPC) 111 % of control | [11] 91 % of control and 100 % of control | [12] 95 % of control | dose: 200.0 mg/kg/injection, schedule: Q01DX009 (ip), vehicle: Klucel (hydroxypropylcellulose) (HPC) 111 % of control | [13] 91 % of control and 108 % of control | dose: 400.0 mg/kg/injection, schedule: Q01DX009 (ip), vehicle: Klucel (hydroxypropylcellulose) (HPC) 111 % of control | [14] 87 % of control and 108 % of control

O=C(CBr)OCCCS(=O)(=O)O
inactive: [6] 95 % of control | [15] 104 % of control | [16] 100 % of control

O=C1OC(=O)C2C3C=CC(C4C=CC43)C12 (stereo unspecified)
inactive: [4] 101 % of control | [17] 97 % of control | [5] 104 % of control | [18] 97 % of control | [6] 111 % of control and 124 % of control | [15] 92 % of control and 106 % of control | [19] 86 % of control | [16] 111 % of control and 119 % of control | dose: 400.0 mg/kg/injection, schedule: Q01DX009 (ip), vehicle: saline 100 % of control | [20] 109 % of control

Cn1cnc(C(N)=S)c1N
inactive: dose: 75.0 mg/kg/injection, schedule: Q04DX003 (ip), vehicle: saline 112 % of control | [10] 100 % of control | dose: 150.0 mg/kg/injection, schedule: Q04DX003 (ip), vehicle: saline 100 % of control | [12] 95 % of control | dose: 300.0 mg/kg/injection, schedule: Q04DX003 (ip), vehicle: saline 112 % of control | dose: 400.0 mg/kg/injection, schedule: Q01DX001 (ip), vehicle: Klucel (hydroxypropylcellulose) (HPC) 100 % of control

Cc1ncc([N+](=O)[O-])n1CCSC(Cl)(Cl)Cl
inactive: [16] 101 % of control | [20] 111 % of control

Oc1cccc2cccnc12.[Cu+].[O-]c1cccc2cccnc12
inactive: dose: 1.87 mg/kg/injection, schedule: Q01DX009 (ip), vehicle: saline 104 % of control | dose: 2.75 mg/kg/injection, schedule: Q04DX003 (ip), vehicle: saline 90 % of control | dose: 3.75 mg/kg/injection, schedule: Q01DX009 (ip), vehicle: saline 100 % of control | dose: 5.5 mg/kg/injection, schedule: Q04DX003 (ip), vehicle: saline 100 % of control | dose: 11.0 mg/kg/injection, schedule: Q04DX003 (ip), vehicle: saline 113 % of control | dose: 16.0 mg/kg/injection, schedule: Q04DX003 (ip), vehicle: saline 100 % of control | [5] 100 % of control

CCC1=C(C)C(=O)C2CCCCC2C1=O (stereo unspecified)
inactive: dose: 100.0 mg/kg/injection, schedule: Q04DX003 (ip), vehicle: saline sonified 100 % of control | dose: 200.0 mg/kg/injection, schedule: Q04DX003 (ip), vehicle: saline sonified 100 % of control | dose: 400.0 mg/kg/injection, schedule: Q04DX003 (ip), vehicle: saline sonified 100 % of control

O=C1C(Cl)=C(Cl)C(=O)c2ccccc21
inactive: [7] 115 % of control | [8] 115 % of control | [9] 112 % of control

S=C(S)N1CCN(C(=S)S)CC1
inactive: [17] 100 % of control and 104 % of control and 110 % of control | dose: 35.0 mg/kg/injection, schedule: Q01DX009 (ip), vehicle: saline 91 % of control | [18] 95 % of control and 105 % of control | dose: 100.0 mg/kg/injection, schedule: Q01DX009 (ip), vehicle: saline 95 % of control | [19] 86 % of control

Fc1ccc(NC2=NCCN=C(Nc3ccc(F)cc3)SS2)cc1
inactive: [1] 96 % of control | [2] 87 % of control | [3] 102 % of control

O=C(NCCCl)Nc1cccc2cc3ccccc3cc12
inactive: [11] 100 % of control | [13] 95 % of control | [14] 90 % of control
